Reference: US20070276034A1, “Compounds, compositions and methods for the treatment of synucleinopathies” (priority 2002, published 2007)

How the values were obtained:
[1] = test system: A53T α-synuclein-expressing BE-M17 cells; assay: XTT Cytotoxicity assay - protection against rotenone-induced cytotoxicity; type: cell-based; details: 40-44 hours
Text: (§1) Therefore, to test the therapeutic potential of the compounds, two cell-based assays were utilized. In both assays, rotenone is used to induce mitochondrial oxidative stress and α-synuclein aggregation. The first assay utilizes the binding of the fluorescent dye thioflavin S to structures with high β-sheet content including α-synuclein fibrils. Therefore, quantitative assessment of the extent of thioflavin S-positive staining of fixed cells is used to test the ability of the compounds to decrease the amount of α-synuclein aggregates. In the second assay, cell viability is assessed using the XTT Cytotoxicity assay, which is dependent on intact, functional mitochondria in live cells. Thus, the XTT Cytotoxicity assay is used to test the ability of the compounds to ameliorate the mitochondrial toxicity and resulting loss of viability associated with the accumulation of α-synuclein aggregates. Phrased another way, the XTT Cytotoxicity assay is used to gauge the compounds neuroprotective efficacy. These studies are presented in the following examples.
(§2) BE-M17 human neuroblastoma cells stably transfected with A53T-mutant human α-synuclein were obtained. Cell culture reagents were obtained from Gibco/Invitrogen, and cells were grown in OPTIMEM supplemented with 10% FBS, Penicillin (100 units/mil)-Streptomycin (100 μg/ml) and 500 μg/ml G418 as previously described (Ostrerova-Golts et al., J. Neurosci., 20:6048-6054, 2000).
Research has shown that the accumulation of α-synuclein fibrils in Lewy bodies contributes mechanistically to the degradation of neurons in Parkinson's disease and related disorders (Polymeropoulos et al., Science 276:2045-2047, 1997; Kruger et al., Nature Genet. 18:106-108, 1998). Here, the XTT Cytotoxicity assay (hereafter referred to as the XTT assay) was used to measure the ability of test compounds to protect against rotenone-induced cytotoxicity (neuroprotective ability). The assay is based on the principle that conversion of the yellow tetrazolium salt XTT to form an orange formazan dye (that absorbs light around 490 nm) occurs only in metabolically active, viable cells. Therefore, light absorbance at 490 nm is proportional to cell viability. For this assay, cells were plated in 96 well tissue culture dishes at 10^4 cells per well. After 24 hours, cells were treated with 500 nM or 2 μM rotenone, or vehicle (0.05% DMSO) as indicated. Immediately after rotenone addition, compounds were added at the indicated concentration. […] Untreated cells received cell culture media only (no compound, with or without rotenone). After 40-44 hours of treatment, conditioned media was removed and replaced with 100 μl fresh media and 50 μl XTT labeling reaction mixture according to the manufacturer's recommendations. Four to five hours later, the absorbance at 490 nm was measured and corrected for absorbance at the 700 nm reference wavelength. […] Percent inhibition of cell death was calculated as the proportion of the rotenone-induced absorbance (viability) decrease that was eliminated by test compound treatment.

[2] = test system: BE-M17 human neuroblastoma cells overexpressing A53T α-synuclein; assay: Thioflavin S aggregation assay in rotenone-treated cells; type: cell-based; details: 500 nM, 1 μM or 5 μM rotenone (FIGS. 4A-E)
Text: as §1, §2
Thioflavin S is commonly used to detect amyloid-containing structures in situ, including in brain tissue (Vallet et al., Acta Neuropathol., 83:170-178, 1992), and cultured cells (Ostrerova-Golts et al., J. Neurosci., 20:6048-6054, 2000), whereas thioflavin T is often used as an in vitro reagent to analyze the aggregation of soluble amyloid proteins into fibrils enriched in β-pleated sheet structures (LeVine III, Prot. Sci., 2:404-410, 1993). Therefore, Thioflavin S histochemistry was used on cultured cells to detect aggregates containing a high degree of […] structures that formed in response to oxidative stress-inducing agents (in this case rotenone) as previously described, with minor modifications (Ostrerova-Golts et al., J. Neurosci, 20:6048-6054, 2000). Briefly, for these studies, cells were grown on Poly-D-Lysine coated glass slide chambers at approximately 3×10^4 cells/cm^2. After 24 hours, cells were treated with 500 nM, 1 μM or 5 μM rotenone (Sigma) or vehicle (0.05% DMSO) as indicated. Immediately after rotenone (or vehicle) addition, compounds were added at the indicated concentration, or cell culture media only (no compound) in the presence of rotenone was added. Identical treatments were repeated after 48 hours. After an additional 48 hours, cells were fixed for 25 minutes in 3% paraformaldehyde. After a PBS wash, the cells were incubated with 0.015% thioflavin S in 50% ethanol for 25 minutes, washed twice for four minutes in 50% ethanol and twice for five minutes in deionized water and then mounted using an aqueous-based mountant designed to protect against photobleaching. Aggregates that bind to thioflavin S were detected with a fluorescent microscope using a High Q FITC filter set (480 to 535 nm bandwidth) and a 20× objective lens unless otherwise indicated. Between 8 and 16 representative images per condition were selected, imaged and processed by an experimenter who was blinded to treatment conditions. To assess the amount of thioflavin S-positive aggregates, the total area per field covered by thioflavin S-positive inclusions was determined. […] Spurious, non-cell associated fluorescence was manually removed. Unless indicated otherwise, data represent group means ±SEM. Statistical analyses were performed with GraphPad Prism (GraphPad Inc). Differences between means (two samples) were assessed by the […]. Differences among multiple means were assessed by one-factor ANOVA followed by Tukey's multiple comparison test.

In the case of `C=C(C)[C@H]1Cc2c(ccc3c2O[C@@H]2COc4cc(OC)c(OC)cc4[C@@H]2C3=O)O1` [rotenone, reference compound], the “decrease of viability relative to untreated cells” value ([1]; 500 nM rotenone) is reported as 30-40%, the “decrease of viability relative to untreated cells” value ([1]; 2 μM rotenone) is reported as 40-50% and the “thioflavin S-positive aggregates relative to vehicle-treated control cells” value [2] is reported as “dose-dependent increase in thioflavin S-positive aggregates”.
